Calls of active or inactive are those of the source. No cut-off for these calls is given here.
Assays:
Rattus norvegicus [1] = species on record: Rattus norvegicus; test: […] activity in rat with several spinal cord injury assessed as increase in locomotory function; assay type: functional, organism-based
Rattus norvegicus [2] = species on record: Rattus norvegicus; test: […] activity in rat with several spinal cord injury assessed as increase in voiding function; assay type: functional, organism-based
Lymphocyte = test: Immunosuppressive activity against autoimmune lymphocytes assessed as inhibition of cell expansion; assay type: functional, cell-based
Rattus norvegicus [3] = test: […] activity in rat with several spinal cord injury assessed as increase in locomotory function at 20 mg/kg/day for 7 days; assay type: functional, organism-based
Rattus norvegicus [4] = test: […] activity in rat with several spinal cord injury assessed as increase in voiding function at 20 mg/kg/day for 7 days; assay type: functional, organism-based

SMILES | Activity (Rattus norvegicus [1]) | Activity (Rattus norvegicus [2]) | inhibition (Lymphocyte) | Activity (Rattus norvegicus [3]) | Activity (Rattus norvegicus [4])
C/C(O)=C(\C#N)C(=O)Nc1ccc(C(F)(F)F)cc1 | Active | Active |  |  | 
Cc1cc(NC(=O)/C(C#N)=C(\O)C2CC2)ccc1C(F)(F)F | Active | Active |  |  | 
Cc1oncc1C(=O)Nc1ccc(C(F)(F)F)cc1 |  |  | Active | Active | Active

— ChEMBL document CHEMBL2157954
